Test results as given in US6825201B2 (priority 2001, dated 2004).

These compounds were tested on HIV-1 single-round infectious reporter virus (assay: microbe, parasite or virus in culture). Details: HeLa CD4 CCR5 cells, single-round HIV-1 reporter virus, MOI 0.01, luciferase read 72 hours after infection; read-out: EC50 Range.
Type: cell-based
Protocol: Virus infection—Human epithelial cell line, HeLa, expressing the HIV-1 receptors CD4 and CCR5 was propagated in Dulbecco's Modified Eagle Medium (Life Technologies, Gaithersburg, Md.) containing 10% fetal Bovine serum (FBS, Sigma, St. Louis, Mo.) and supplemented with 0.2 mg/ml Geneticin (Life Technologies, Gaithersburg, Md.) and 0.4 mg/ml Zeocin (Invitrogen, Carlsbad, Calif.).
Transfections were performed using lipofectAMINE PLUS reagent as described by the manufacturer (Life Technologies, Gaithersburg, Md.).
1. Compound was added to HeLa CD4 CCR5 cells plated in 96 well plates at a cell density of 5×10^4 cells per well in 100 μl Dulbecco's Modified Eagle Medium containing 10% fetal Bovine serum at a concentration of <20 μM.
2. 100 μl of single-round infectious reporter virus in Dulbecco's Modified Eagle Medium was then added to the plated cells and compound at an approximate multiplicity of infection (MOI) of 0.01, resulting in a final volume of 200 μl per well and a final compound concentration of <10 μM.
3. Samples were harvested 72 hours after infection.
4. Viral infection was monitored by measuring luciferase expression from viral DNA in the infected cells using a luciferase reporter gene assay kit (Roche Molecular Biochemicals, Indianapolis, Ind.). Infected cell supernatants were removed and 50 μl of Dulbecco's Modified Eagle Medium (without phenol red) and 50 μl of luciferase assay reagent reconstituted as described by the manufacturer (Roche Molecular Biochemicals, Indianapolis, Ind.) was added per well. Luciferase activity was then quantified by measuring luminescence using a Wallac microbeta scintillation counter.
5. An EC50 provides a method for comparing the antiviral potency of the compounds of this invention. The effective concentration for fifty percent inhibition (EC50) was calculated with the Microsoft Excel Xlfit curve fitting software.

Question: For “N-(benzoyl)-N′-[(4-fluorol-indolin-3-yl)-acetyl]-piperazine [Example 21]”, which EC50 is on record?
Answer: Its EC50 is less than 1 µM.

Same assay, conditions: Human immunodeficiency virus 1, HeLa-CD4/CCR5, 72 h, read-out: EC50 Range

Question: Which EC50 does the source give for `COc1cccc2occ(C(=O)C(C#N)N3CCN(C(=O)c4ccccc4)CC3)c12` (centres unmarked) [Example 3] here?
Answer: The EC50 was less than 1 µM.

Question: How did the EC50 turn out when `CC1CN(C(=O)c2ccccc2)CCN1C(=O)C(=O)c1cc2cc(F)ccc2[nH]1` (centres unmarked) [Example 8] was run?
Answer: Its EC50 is less than 1 µM.

Question: For `COc1ccc(C#N)c2[nH]cc(C(=O)N3CCN(C(=O)c4ccccc4)CC3)c12` [Example 27], which EC50 is on record?
Answer: Its EC50 is greater than 0.5 µM.

Question: Which EC50 does the source give for `CNC(=O)c1ccc(F)c2c(C(O)C(=O)N3CCN(C(=O)c4ccccc4)CC3)c[nH]c12` (centres unmarked) [Example 32, 3-[2-(4-Benzoyl-piperazin-1-yl)-1-hydroxy-2-oxo-ethyl]-4-fluoro-1H-indole-7-carboxylic acid methylamide] here?
Answer: The EC50 was less than 1 µM.

Question: How did the EC50 turn out when `O=C(c1ccccc1)N1CCN(C(=O)c2c[nH]c3cccc(F)c23)CC1` [Example 29] was run?
Answer: Its EC50 is less than 1 µM.

Question: With `COc1c(C(=O)C(=O)N2CCN(C(=O)c3ccccc3)CC2)cnc2c1c(C)nn2C` [Example 10] as the compound, how does the EC50 read?
Answer: Its EC50 is 1 to 5 µM.

Question: `CCCCNc1c(C(=O)C(=O)N2CCN(C(=O)c3ccccc3)CC2)cnc2c1cnn2CC` [Example 14] was tested. Which EC50 did it give?
Answer: The EC50 was greater than 5 µM.

Question: How did the EC50 turn out when `O=C(C(=O)N1CCN(C(=O)c2ccccc2)CC1)c1cc2ccccc2s1` [Example 19, 1-(benzoyl)-4-[(benzothiophen-2-yl)-2-oxoacetyl]piperazine] was run?
Answer: Its EC50 is 1 to 5 µM.

Question: For `COc1ccc(-c2nc(C)n[nH]2)c2[nH]cc(C(=O)N3CCN(C(=O)c4ccccc4)CC3)c12` [Example 26], which EC50 is on record?
Answer: Its EC50 is 1 to 5 µM.

Question: Which EC50 does the source give for `CCCCNc1c(C(=O)C(=O)N2CCN(C(=O)c3ccccc3)CC2C)cnc2c1cnn2CC` (centres unmarked) [Example 13] here?
Answer: The EC50 was less than 1 µM.

Question: With `CNC(=O)c1ccc(F)c2c(CC(=O)N3CCN(C(=O)c4ccccc4)CC3)c[nH]c12` [Example 31, 3-[2-(4-Benzoyl-piperazin-1-yl)-2-oxo-ethyl]-4-fluoro-1H-indole-7-carboxylic acid methylamide] as the compound, how does the EC50 read?
Answer: The EC50 was 1 to 5 µM.

Question: For `CC1CN(C(=O)c2ccccc2)CCN1C(=O)C(=O)c1cc2cc(Cl)ccc2[nH]1` (centres unmarked) [Example 9], which EC50 is on record?
Answer: The EC50 was less than 1 µM.

Question: With `COc1ccc(C#N)c2[nH]cc(C(=O)N3CCN(C(=O)c4ccccc4)C[C@H]3C)c12` [Example 28] as the compound, how does the EC50 read?
Answer: The EC50 was greater than 0.5 µM.

Question: `O=C(C(=O)N1CCN(C(=O)c2ccccc2)CC1)c1csc2ccccc12` [Example 18, 1-(benzoyl)-4-[(benzothiophen-3-yl)-2-oxoacetyl]piperazine] was tested. Which EC50 did it give?
Answer: Its EC50 is 1 to 5 µM.

Question: How did the EC50 turn out when `O=C(C(=O)N1CCN(C(=O)c2ccccc2)CC1)c1cccc2[nH]ccc12` [Example 22, 1-(4-benzoyl-piperazin-1-yl)-2-(1H-indol-4-yl)-ethane-1,2-dione] was run?
Answer: Its EC50 is less than 1 µM.

Question: Which EC50 does the source give for `COc1c(C(=O)C(=O)N2CCN(C(=O)c3ccccc3)CC2C)cnc2c1c(C)nn2C` (centres unmarked) [Example 12] here?
Answer: Its EC50 is 1 to 5 µM.

Question: With `COc1cccc2occ(C(=O)C(=O)N3CCN(C(=O)c4ccccc4)CC3)c12` [Example 6] as the compound, how does the EC50 read?
Answer: The EC50 was greater than 0.5 µM.

Question: Which EC50 does the source give for `COc1ccc2cc(C(=O)C(C#N)N3CCN(C(=O)c4ccccc4)CC3C)[nH]c2c1` (centres unmarked) [Example 2] here?
Answer: The EC50 was less than 1 µM.

Question: `O=C(C(=O)N1CCN(C(=O)c2ccccc2)CC1)c1cc2ccccc2[nH]1` [Example 5, 1-(benzoyl)-4-[(indol-2-yl)-2-oxoacetyl]piperazine] was tested. Which EC50 did it give?
Answer: Its EC50 is less than 1 µM.
